18 compounds from paper PMC10746280, “Bacterial efflux pump modulators prevent bacterial growth in macrophages and under broth conditions that mimic the host environment” (mBio, 2023) can be followed below.

Series [1] has as its system S. Typhimurium SL1344 (sifB::gfp) in RAW 264.7 macrophages. In words: SAFIRE macrophage assay: intracellular bacterial load (GFP signal within macrophages). Format: cell-based, Salmonella enterica serotype Typhimurium. In short, it runs like this:
(§1)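 Compound or DMSO added 2 h after gentamicin-protected infection (MOI ~30, sifB::gfp SL1344) of RAW 264.7 cells and left to 18 h. Fixed cells imaged; intracellular GFP area per macrophage gives bacterial load, while retained adherent MitoTracker Red-stained macrophages define host toxicity.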

The subject of another series is RAW 264.7 macrophages. In words: SAFIRE macrophage assay: host toxicity (adherent macrophage count, morphology). Format: cell-based. In short, it runs like this:
as §1

The mark [2] stands for this setting: 5 uM, 'Toxic' given instead of a score.
Setting [3] is: 25 uM, 'Toxic' given instead of a score.
Setting [4] is: 5 uM compound, n=1, DMSO solvent control = 98, rifampicin 2 μg/mL = 65.
The mark [5] stands for this setting: 25 uM compound, n=1, DMSO solvent control = 98, rifampicin 2 μg/mL = 65.
The mark [6] stands for this setting: 5 uM compound, n=1, DMSO solvent control = 100.
Where [7] appears, read: 25 uM compound, n=1, DMSO solvent control = 100.

Take `OC(COc1ccc(F)cc1F)CN1CCC(Nc2nccc(C(F)(F)F)n2)C1` (stereo not shown) [CU098]: in series [1] (setting [2]), the “5 uM Avg Antibacterial Score” value is on record as 92. Also, the “25 uM Avg Antibacterial Score” value in series [1] (setting [3]) is 12. Moreover, the “5 uM Avg Cell # Score” value in the series with RAW 264.7 macrophages (5 uM) came to 89. Further, in the series on RAW 264.7 macrophages (25 uM), the “25 uM Avg Cell # Score” value worked out at 88.

On to `OC(CNC1CCNCC1)COc1cccc(Cl)c1` (stereo not shown) [CU199], for which the “5 uM Avg Antibacterial Score” value in series [1] (setting [2]) came out at 83. The “25 uM Avg Antibacterial Score” value in series [1] (setting [3]) was found to be 55. Besides, the “5 uM Avg Cell # Score” value in the series with RAW 264.7 macrophages (5 uM) was determined as 105. In addition, the “25 uM Avg Cell # Score” value in the series on RAW 264.7 macrophages (25 uM) stood at 115.

With `N#Cc1ccc(OCC(O)CN2CCC(Nc3ncccn3)CC2)cc1` (stereo not shown) [CU050], the “5 uM Avg Antibacterial Score” value in series [1] (setting [2]) came out at 101. Also, the “25 uM Avg Antibacterial Score” value in series [1] (setting [3]) turned out to be 95. Moreover, the “5 uM Avg Cell # Score” value with RAW 264.7 macrophages (5 uM) amounted to 102. Besides, the “25 uM Avg Cell # Score” value in the series with RAW 264.7 macrophages (25 uM) stood at 113.

For the compound `NC1CCN(CC(O)COc2cc(Cl)cc(Cl)c2)CC1` (stereo not shown) [CU191], in series [1] (setting [2]), the “5 uM Avg Antibacterial Score” value is given as 14. Besides, the “25 uM Avg Antibacterial Score” value in series [1] (setting [3]) is on record as “Toxic”. Moreover, in the series with RAW 264.7 macrophages (5 uM), the “5 uM Avg Cell # Score” value stood at 100. For the same compound, in the series on RAW 264.7 macrophages (25 uM), the “25 uM Avg Cell # Score” value worked out at 15.

The IC50 is the concentration at which inhibition is half-maximal. On to `NC1CCN(C[C@H](O)COc2ccc(Cl)c(Cl)c2)C1` (stereo partly shown) [CU160], for which the “5 uM Avg Antibacterial Score” value in series [1] (setting [2]) is recorded as 51. Also, the “25 uM Avg Antibacterial Score” value in series [1] (setting [3]) is 35. Besides, the IC50 in series [1] (Salmonella enterica, TYPHIMURIUM, RAW264.7, read-out: SAFIRE IC50) is 2.6 nM. For the same compound, the “5 uM Avg Cell # Score” value in the series on RAW 264.7 macrophages (5 uM) was 137. In the series on RAW 264.7 macrophages (25 uM), the “25 uM Avg Cell # Score” value was determined as 129.

For `CO[C@@H]1CCN(CC(O)COc2ccc(Cl)c(Cl)c2)C1` (stereo partly shown) [CU127], the “5 uM Avg Antibacterial Score” value in series [1] (setting [2]) is listed as 97. Besides, the “25 uM Avg Antibacterial Score” value in series [1] (setting [3]) is 46. Further, the “5 uM Avg Cell # Score” value in the series on RAW 264.7 macrophages (5 uM) was found to be 92. Further, the “25 uM Avg Cell # Score” value with RAW 264.7 macrophages (25 uM) amounted to 85.

`OC(COc1ccc(Cl)c(Cl)c1)CN1CCCC(N2CCOCC2)C1` (stereo not shown) [CU030]: the “5 uM Avg Antibacterial Score” value in series [1] (setting [2]) was 102. In addition, the “25 uM Avg Antibacterial Score” value in series [1] (setting [3]) came to 45. Moreover, the “5 uM Avg Cell # Score” value in the series on RAW 264.7 macrophages (5 uM) was found to be 57. Besides, the “25 uM Avg Cell # Score” value in the series on RAW 264.7 macrophages (25 uM) turned out to be 126.

For `OC(COc1ccc(F)cc1)CN1CCC(Nc2ncccn2)CC1` (stereo not shown) [CU045], the “5 uM Avg Antibacterial Score” value in series [1] (setting [2]) is recorded as 101. Besides, the “25 uM Avg Antibacterial Score” value in series [1] (setting [3]) turned out to be 99. For the same compound, the “5 uM Avg Cell # Score” value in the series with RAW 264.7 macrophages (5 uM) was determined as 86. Besides, the “25 uM Avg Cell # Score” value in the series on RAW 264.7 macrophages (25 uM) is 109.

As for `OC(COc1ccc(Cl)c(Cl)c1)CN1CCN(C2CCOC2)CC1` (stereo not shown) [CU180], the “5 uM Avg Antibacterial Score” value in series [1] (setting [2]) is recorded as 106. Besides, the “25 uM Avg Antibacterial Score” value in series [1] (setting [3]) is given as 82. In addition, the “5 uM Avg Cell # Score” value in the series on RAW 264.7 macrophages (5 uM) turned out to be 96. Also, the “25 uM Avg Cell # Score” value in the series on RAW 264.7 macrophages (25 uM) amounted to 100.

Consider `CN(CC(O)COc1ccc(Cl)c(Cl)c1)C1CCOC1` (stereo not shown) [CU122], for which, in series [1] (setting [2]), the “5 uM Avg Antibacterial Score” value worked out at 102. The “25 uM Avg Antibacterial Score” value in series [1] (setting [3]) was 81. Besides, the “5 uM Avg Cell # Score” value in the series with RAW 264.7 macrophages (5 uM) is listed as 81. For the same compound, in the series on RAW 264.7 macrophages (25 uM), the “25 uM Avg Cell # Score” value was 74.

Take `OC(COc1ccccc1Cl)CN1CCC(NC2CC2)C1` (stereo not shown) [CU141]: the “5 uM Avg Antibacterial Score” value in series [1] (setting [2]) is 81. Further, in series [1] (setting [3]), the “25 uM Avg Antibacterial Score” value turned out to be 79. In the series with RAW 264.7 macrophages (5 uM), the “5 uM Avg Cell # Score” value worked out at 116. In the series on RAW 264.7 macrophages (25 uM), the “25 uM Avg Cell # Score” value is listed as 137.

Take `OC(CNCc1cccc2ccccc12)COc1ccc(Cl)c(Cl)c1` (stereo not shown) [CU133]: the “5 uM Avg Antibacterial Score” value in series [1] (setting [2]) was found to be 60. The “25 uM Avg Antibacterial Score” value in series [1] (setting [3]) is “Toxic”. For the same compound, the “5 uM Avg Cell # Score” value in the series with RAW 264.7 macrophages (5 uM) is reported as 84. Besides, the “25 uM Avg Cell # Score” value with RAW 264.7 macrophages (25 uM) is 92.

Take `OC(CNC1CCNCC1)COc1ccc(Cl)cc1` (stereo not shown) [CU198]: the “5 uM Avg Antibacterial Score” value in series [1] (setting [2]) was 83. For the same compound, the “25 uM Avg Antibacterial Score” value in series [1] (setting [3]) turned out to be 34. Also, in the series with RAW 264.7 macrophages (5 uM), the “5 uM Avg Cell # Score” value came out at 110. In addition, the “25 uM Avg Cell # Score” value in the series on RAW 264.7 macrophages (25 uM) is given as 110.

Regarding `OC(COc1cc(Cl)cc(Cl)c1)CN1CCCCC1` (stereo not shown) [CU247], in series [1] (setting [4]), the “5 uM Avg Antibacterial Score” value amounted to 93. In addition, in series [1] (setting [5]), the “25 uM Avg Antibacterial Score” value worked out at 50. Further, in the series on RAW 264.7 macrophages (setting [6]), the “5 uM Avg Cell # Score” value is recorded as 118. The “25 uM Avg Cell # Score” value in the series with RAW 264.7 macrophages (setting [7]) is on record as 111.

For `N#Cc1ccc(OCC(O)CN2CCC(N)C2)cc1` (stereo not shown) [CU154], in series [1] (setting [2]), the “5 uM Avg Antibacterial Score” value was determined as 112. In series [1] (setting [3]), the “25 uM Avg Antibacterial Score” value was 111. In addition, the “5 uM Avg Cell # Score” value with RAW 264.7 macrophages (5 uM) stood at 99. Also, the “25 uM Avg Cell # Score” value with RAW 264.7 macrophages (25 uM) amounted to 123.

Take `NC1CCN(CC(O)COc2ccc(F)c(F)c2)CC1` (stereo not shown) [CU171]: the “5 uM Avg Antibacterial Score” value in series [1] (setting [2]) was determined as 61. In addition, the “25 uM Avg Antibacterial Score” value in series [1] (setting [3]) is 45. The “5 uM Avg Cell # Score” value in the series on RAW 264.7 macrophages (5 uM) is 108. Also, the “25 uM Avg Cell # Score” value with RAW 264.7 macrophages (25 uM) is listed as 96.

With `OC(COc1ccc(Cl)c(Cl)c1)CN1CCN(C2CC2)CC1` (stereo not shown) [CU182], in series [1] (setting [2]), the “5 uM Avg Antibacterial Score” value is 105. In addition, the “25 uM Avg Antibacterial Score” value in series [1] (setting [3]) is given as 73. Besides, the “5 uM Avg Cell # Score” value with RAW 264.7 macrophages (5 uM) was found to be 102. In the series on RAW 264.7 macrophages (25 uM), the “25 uM Avg Cell # Score” value is reported as 101.

Regarding `CC1(N)CCN(CC(O)COc2ccc(Cl)c(Cl)c2)CC1` (stereo not shown) [CU235], the “5 uM Avg Antibacterial Score” value in series [1] (setting [4]) was found to be 20. For the same compound, the “25 uM Avg Antibacterial Score” value in series [1] (setting [5]) is on record as 14. Moreover, the “5 uM Avg Cell # Score” value in the series with RAW 264.7 macrophages (setting [6]) was determined as 125. In addition, the “25 uM Avg Cell # Score” value in the series with RAW 264.7 macrophages (setting [7]) was found to be 84.
